Assay results: ChEMBL document CHEMBL3102745, “Inhibition of CK2: An Attractive Therapeutic Target for Cancer Treatment” (ACS Med Chem Lett, 2013)

Legend:
HCT-116 = assay: Antiproliferative activity against human HCT116 cells after 72 hrs by Alamar blue assay; assay type: functional; settings: HCT-116, 72 h
[1] = biological target: Casein kinase II subunit alpha (Homo sapiens) (UniProt P68400); assay: Inhibition of N-terminal 6 X His-tagged recombinant human full length Casein Kinase 2 alpha subunit expressed in Sf21 insect cells using BODIPY-FL-RRRDDDSDDD-CONH2 as substrate preincubated for 20 mins measured after 90 mins by fluorescence-based assay
Sequence of Casein kinase II subunit alpha (Homo sapiens) (P68400 whole entry, looked up): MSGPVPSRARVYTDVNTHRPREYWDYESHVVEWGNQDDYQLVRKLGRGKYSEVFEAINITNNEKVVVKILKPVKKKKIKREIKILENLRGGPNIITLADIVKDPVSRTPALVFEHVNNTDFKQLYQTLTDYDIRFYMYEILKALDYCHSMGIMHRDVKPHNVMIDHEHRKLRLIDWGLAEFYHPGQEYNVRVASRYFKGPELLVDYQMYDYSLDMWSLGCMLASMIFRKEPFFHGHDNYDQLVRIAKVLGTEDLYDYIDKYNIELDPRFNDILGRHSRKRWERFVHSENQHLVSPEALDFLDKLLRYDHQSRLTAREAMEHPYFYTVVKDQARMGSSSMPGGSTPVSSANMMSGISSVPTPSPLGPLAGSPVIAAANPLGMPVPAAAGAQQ

Row | Structure (SMILES) | GI50 (HCT-116) [nM] | IC50 [1] [nM]
1 | CC(=O)Nc1cc(Nc2cc(NC3CC3)n3ncc(C#N)c3n2)ccc1N(C)CCN(C)C | 30 | < 4000
2 | CC(=O)Nc1cc(Nc2cc(NC3CC3)n3ncc(C#N)c3n2)ccc1N(C)CCN | 9 | 
